Measurements taken from the supplement of paper PMC10307832.

Columns and labels:
Test in all cases: relative viability (nuclei count vs DMSO), 5 days (fraction); higher = more cells survive
[1] = compound: Cn1cc(-c2cnn3c(N)c(Br)c([C@@H]4CCCNC4)nc23)cn1 + Nc1ncn([C@H]2C[C@H](O)[C@@H](CO)O2)c(=O)n1 [Decitabine] (partner 2 µM)
Procedure, shortened: (§1)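 Each reported value is a median over duplicate plates. It expresses relative viability: treated-well nuclei count divided by vehicle-well nuclei count. Lung cancer cell lines in 1536-well plates were dosed by pin tool a day after seeding, alone with one drug or with a fixed anchor-drug dose plus five library-drug doses (not always all listed) in √10 steps, and nuclei were counted after 5 days.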

[2] = compound: Cn1cc(-c2cnn3c(N)c(Br)c([C@@H]4CCCNC4)nc23)cn1 + O=C(c1cc(Cc2n[nH]c(=O)c3ccccc23)ccc1F)N1CCN(C(=O)C2CC2)CC1 [Olaparib] (partner 8 µM)
Procedure, shortened: as §1

[3] = compound: Cn1cc(-c2cnn3c(N)c(Br)c([C@@H]4CCCNC4)nc23)cn1 + CS(=O)(=O)CCNCc1ccc(-c2ccc3ncnc(Nc4ccc(OCc5cccc(F)c5)c(Cl)c4)c3c2)o1 [Lapatinib] (partner 2 µM)
Procedure, shortened: as §1

[4] = compound: Cn1cc(-c2cnn3c(N)c(Br)c([C@@H]4CCCNC4)nc23)cn1 + NC(=O)Nc1cc(-c2cccc(F)c2)sc1C(=O)N[C@H]1CCCNC1 [AZD7762] (partner 0.2 µM)
Procedure, shortened: as §1

Cell Line | relative viability ([1]; first compound 0.05 µM) | relative viability ([1]; first compound 0.1581 µM) | relative viability ([1]; first compound 0.5 µM) | relative viability ([1]; first compound 1.581 µM) | relative viability ([1]; first compound 5 µM) | relative viability ([2]; first compound 0.05 µM) | relative viability ([2]; first compound 0.1581 µM) | relative viability ([2]; first compound 0.5 µM) | relative viability ([2]; first compound 1.581 µM) | relative viability ([2]; first compound 5 µM) | relative viability ([3]; first compound 0.05 µM) | relative viability ([3]; first compound 0.1581 µM) | relative viability ([3]; first compound 0.5 µM) | relative viability ([3]; first compound 1.581 µM) | relative viability ([3]; first compound 5 µM) | relative viability ([4]; first compound 0.05 µM) | relative viability ([4]; first compound 0.1581 µM) | relative viability ([4]; first compound 0.5 µM) | relative viability ([4]; first compound 1.581 µM) | relative viability ([4]; first compound 5 µM)
NCI-H1437 | 0.556 | 0.695 | 0.655 | 0.623 | 0.21 | 0.664 | 0.726 | 0.71 | 0.646 | 0.595 | 0.802 | 0.975 | 0.741 | 0.563 | 0.505 | 1.11 | 1.18 | 1.08 | 1.01 | 0.889
NCI-H1651 | 0.566 | 0.648 | 0.613 | 0.552 | 0.385 | 0.17 | 0.146 | 0.166 | 0.164 | 0.145 | 0.733 | 0.874 | 0.708 | 0.494 | 0.367 | 0.436 | 0.407 | 0.387 | 0.378 | 0.219
NCI-H1666 | 0.629 | 0.699 | 0.719 | 0.698 | 0.713 | 0.777 | 0.797 | 0.7 | 0.716 | 0.741 | 0.576 | 0.648 | 0.555 | 0.559 | 0.594 | 0.78 | 0.82 | 0.813 | 0.845 | 0.861
NCI-H1734 | 0.518 | 0.491 | 0.49 | 0.437 | 0.448 | 0.625 | 0.647 | 0.52 | 0.599 | 0.441 | 1.06 | 1.08 | 0.917 | 0.944 | 0.778 | 0.531 | 0.572 | 0.48 | 0.469 | 0.474
NCI-H1755 | 0.722 | 0.81 | 0.774 | 0.793 | 0.855 | 0.964 | 0.989 | 0.931 | 0.989 | 0.847 | 1.15 | 1.14 | 1.09 | 0.743 | 0.758 | 0.518 | 0.511 | 0.416 | 0.4 | 0.307
NCI-H1792 | 0.542 | 0.627 | 0.587 |  | 0.516 | 0.637 | 0.368 | 0.378 |  | 0.34 | 0.84 | 1.06 | 0.335 | 0.718 | 0.784 | 0.613 | 1.3 | 0.729 |  | 0.412
NCI-H1793 | 0.532 | 0.543 | 0.542 | 0.498 | 0.178 | 1.02 | 1.08 | 0.921 | 0.718 | 0.472 | 0.709 | 0.926 | 0.689 | 0.753 | 0.259 | 0.598 | 0.466 | 0.422 | 0.397 | 0.183
NCI-H1915 | 0.225 | 0.255 | 0.299 | 0.24 | 0.311 | 0.312 | 0.268 | 0.299 | 0.261 | 0.236 | 1 | 0.959 | 0.989 | 0.825 | 0.954 | 0.666 | 0.67 | 0.718 | 0.69 | 0.709
NCI-H1944 | 0.439 | 0.468 | 0.448 | 0.482 | 0.356 | 0.408 | 0.448 | 0.374 | 0.378 | 0.349 | 0.823 | 0.832 | 0.761 | 0.605 | 0.577 | 0.608 | 0.491 | 0.466 | 0.423 | 0.341
